In US20250228850A1, “COMBINATION OF A CXCR7 ANTAGONIST WITH AN S1P1 RECEPTOR MODULATOR” (Idorsia Pharmaceuticals Ltd., priority 2019, published 2025):
Entries after “also recorded” stand apart in the source; their conditions may differ.

Tests used:
[1] = system: cuprizone-induced demyelination mice; experiment: Cuprizone-induced demyelination mouse model, Experiment 1; assay type: in vivo, mouse (C57BL/6); details: 6 weeks
Method: Male C57BL/6 mice are exposed to cuprizone (CPZ; 150 mg/kg, b.i.d.), a […] chelating agent which leads to the death of mature oligodendrocytes, by oral gavage twice daily for six weeks. […] The experiment is terminated after 6 weeks of cuprizone exposure. […] CXCL12 plasma concentrations are measured as previously described in example A. Brain samples are isolated and fixed for histopathological and immunohistochemistry examinations to assess the degree of demyelination (Luxol Fast Blue for myelin staining) and the loss of mature oligodendrocytes (GSTiT staining).

[2] = system: cuprizone-induced demyelination mice; experiment: Cuprizone-induced demyelination model with cuprizone withdrawal, Experiment 2; assay type: in vivo, mouse (C57BL/6); details: week 5 to week 7; COMPOUND 100 mg/kg b.i.d., fingolimod 0.3 mg/kg q.d.
Method: Male C57BL/6 mice are exposed to a 0.2% cuprizone diet for six weeks and then switched to control food for one more week. Groups of 8-9 mice are dosed orally starting after five weeks of cuprizone exposure. It consists of three treatment groups: • 1. Vehicle (0.5% Methylcellulose/0.5% Tween® 80) b.i.d., from week 5 to week 7 • 2. Fingolimod (0.3 mg/kg) q.d.+Vehicle q.d., from week 5 to week 7 • 3. […] Hematology parameters, including lymphocyte count, are measured at the termination of the experiment, one hour after the last dosing. […] Brain samples are isolated and fixed for histopathological and immunohistochemistry examinations to assess the degree of demyelination (Luxol Fast Blue for myelin staining).

[3] = system: CXCL12 in plasma (biomarker of CXCR7 receptor antagonist); experiment: Dose finding of COMPOUND in naive mice, CXCL12 elevation in plasma; assay type: in vivo, mouse (C57BL/6); details: COMPOUND 100 mg/kg b.i.d. oral, 3 days, naive C57BL/6 mice, exposure at trough (14 hours after last dosing), only the highest dose tested
Text: CXCL12 or CXCL11 plasma concentrations may be determined using methods well known in the art, e.g. an Ella® immunoassay (Bio-Techne®), or a commercial quantikine ELISA mouse CXCL12/SDF1α kit from R&D systems.

PLP-induced EAE mice = experiment: Monotherapy efficacy experiment in the PLP-induced EAE model (therapeutic setting); assay type: in vivo, mouse (SJL/J)
Method: Female SJL/J mice are immunized with an emulsion of PLP in CFA and pertussis toxin (day 0). A total of 100 μg of PLP is injected per mice at two sites subcutaneously in each flank of the abdomen. Mice are injected intraperitoneally with pertussis toxin a second time, 2 days after the first injection (day 2). Within 9 to 16 days, mice develop signs of paralysis which will be graded on a scale from 0 to 5 assessing the tail and limbs defined as: 0=no clinical sign of EAE, 0.5=end tail paralyzed or one limb weakness, 1=tail paralyzed or two limbs weakness, 1.5=tail paralyzed and one hind limb weakness, 2=tail paralyzed and bilateral partial hind limb paralysis, 2.5=tail paralyzed and unilateral complete hind limb paralysis, 2.75=score of 2.5+unilateral partial hind limb paralysis, 3=complete bilateral hind limb paralysis, 3.25=3+unilateral partial forelimb paralysis, 3.5=3+unilateral complete forelimb paralysis, 4=complete paralysis (moribund) and, 5=death or euthanized. The disease progression follows a relapsing-remitting course with a first peak of disease occurring three to five days after the onset, followed by a remission phase and a second peak of the disease between 20-30 days after EAE induction.
The study consists of four treatment groups: • 1. Vehicle (water) b.i.d., from disease onset for each mouse • 2.
Clinical scores are assessed on a daily basis, in a blinded manner and disease development is compared between vehicle-treated mice and mice receiving COMPOUND. The cumulative disease score is calculated for each mouse by summing all the daily clinical scores over the 30-days after treatment initiation. […] CXCL12 plasma concentrations are determined as previously described in example A.

[4] = First-in-human single-dose study in healthy male subjects (NCT03869320); assay type: in vivo; details: male, human, plasma
Method: (§1) […] […] In the 30 mg dose level group the effect of food is additionally investigated by administering the same treatment to the same subjects after a standardized high-fat breakfast.

healthy male subjects = experiment: as above; assay type: in vivo
Method: as §1

MOG-induced EAE mice = experiment: Combination efficacy experiment in the MOG-induced EAE model (therapeutic setting); assay type: in vivo, mouse (C57BL/6)
Method: The combination efficacy experiment is performed in the same mouse EAE model as described for the pilot experiments.
Groups of 10 mice are dosed orally starting just before the onset of disease (day 7). It consists of four treatment groups: • 1. Vehicle (0.5% Methylcellulose/0.5% Tween® 80) b.i.d., from day 7 • 2. Fingolimod (0.03 mg/kg) q.d.+Vehicle q.d., from day 7 • 3.
Clinical scores are assessed on a daily basis and disease development is compared between vehicle-treated mice and mice receiving the different treatments. The experiment is terminated at day 16 or day 17. Hematology parameters, including lymphocyte count, are measured at the termination of the experiment. […] CXCL12 plasma concentrations are determined using a commercial quantikine ELISA mouse CXCL12/SDF1c kit from R&D systems, according to manufacturer's instructions.

[5] = COMPOUND 10, 100, 150 mg/kg b.i.d. from disease onset

Question: For `O=C(N[C@H]1CCN(CC2CC2)C[C@@H]1C(=O)NC1(c2ncccn2)CC1)c1cc(-c2ccc(F)cc2F)on1` [COMPOUND, (3S,4S)-1-Cyclopropylmethyl-4-{[5-(2,4-difluoro-phenyl)-isoxazole-3-carbonyl]-amino}-piperidine-3-carboxylic acid (1-pyrimidin-2-yl-cyclopropyl)-amide], which “mature oligodendrocyte counts in the corpus callosum” value ([1]; COMPOUND 100 mg/kg b.i.d. preventive from day 0 (prev-CPZ)) is on record?
Answer: increased significantly

Question: What about the “myelin stain (Luxol Fast Blue) in the corpus callosum” value ([1]; COMPOUND 100 mg/kg b.i.d. preventive, co-administered with cuprizone from day 0 (prev-CPZ)) of the same compound?
Answer: increased significantly

Question: What about the “mature oligodendrocyte counts in the corpus callosum” value ([1]; COMPOUND 100 mg/kg b.i.d. therapeutic from week 3 (ther-CPZ)) of the same compound?
Answer: increased significantly

Question: What about the “myelin stain (Luxol Fast Blue) in the corpus callosum” value ([1]; COMPOUND 100 mg/kg b.i.d. therapeutic, starting 3 weeks after cuprizone start (ther-CPZ)) of the same compound?
Answer: increased significantly

Question: And the “spontaneous remyelination in the corpus callosum one week after CPZ withdrawal” value [2]?
Answer: accelerated significantly

Question: What about the “plasma CXCL12 increase over 24 h” value [3] of the same compound?
Answer: sustain plasma CXCL12 increase over 24 h; also recorded: sustain CXCL12 plasma levels over 24 hours

Question: And the “CXCL11 plasma levels at trough” value (PLP-induced EAE mice; COMPOUND 100 mg/kg b.i.d.)?
Answer: increases

Question: What about the “CXCL12 plasma levels at trough” value (PLP-induced EAE mice; COMPOUND 100 mg/kg b.i.d.) of the same compound?
Answer: increases

Question: And the “clinical scores in the PLP-induced EAE model” value (PLP-induced EAE mice; COMPOUND 100 mg/kg b.i.d.)?
Answer: maximally reduces

Question: What about the “plasma CXCL11 levels” value (PLP-induced EAE mice; [5]) of the same compound?
Answer: dose-dependent increase

Question: And the “plasma CXCL12 levels” value (PLP-induced EAE mice; [5])?
Answer: dose-dependent increase

Question: What about the “overall extent of the disease, mean cumulative disease scores over 30 days after treatment initiation” value (PLP-induced EAE mice; COMPOUND 10, 100, 150 mg/kg b.i.d. oral from disease onset (therapeutic)) of the same compound?
Answer: dose-dependent efficacy

Question: What about the bioavailability ([4]; iv, i.v. microtracer, 200 mg dose level group, read-out: absolute bioavailability) of the same compound?
Answer: ~50%

Question: What about the Tmax ([4]; single oral doses >=10 mg, fasted) of the same compound?
Answer: 1.3 to 3 h

Question: And the “food effect on the pharmacokinetics” value (healthy male subjects; 30 mg, standardized high-fat breakfast vs fasted)?
Answer: no relevant food effect

Question: And the “dose dependence of plasma CXCL12 concentrations” value (healthy male subjects; 1 to 200 mg single oral dose)?
Answer: dose-dependently increase

Question: What about the “exposure increase across the dose range” value (healthy male subjects; 1 to 200 mg single oral dose) of the same compound?
Answer: essentially dose-proportional

Question: What about the CXCL11 concentrations (healthy male subjects; healthy volunteers, single dose) of the same compound?
Answer: essentially unchanged

Question: What about the route of excretion (healthy male subjects; oral microtracer, 100 mg dose level group) of the same compound?
Answer: mainly excreted in feces and to a minor extent in urine

Question: And the “plasma CXCL12 levels compared to baseline” value (healthy male subjects; single oral dose, across tested dose range)?
Answer: approximately 2 fold

Question: And the safety and tolerability (healthy male subjects; single oral doses from 1 to 200 mg, healthy male subjects)?
Answer: safe and well tolerated

Question: And the CXCL12 plasma levels (MOG-induced EAE mice; COMPOUND 100 mg/kg b.i.d. from day 7, at termination)?
Answer: increase

Question: And the “efficacy on the clinical scores of the disease” value (MOG-induced EAE mice; from day 7 (just before onset), COMPOUND 100 mg/kg b.i.d., fingolimod 0.03 mg/kg q.d., combination effect from day 14 onwards)?
Answer: moderate
